{"source": "the OligoGym collection", "note": "Bases are written 5' to 3'; sugars and linkages follow in the same order, as letters with counts (s phosphorothioate, o phosphodiester; PS: all linkages phosphorothioate). The collection does not say whether C is 5-methylated. l = locked nucleic acid (LNA); d = 2'-deoxy (DNA)"}
{"target": "not listed separately", "assay": "rat primary cortical neurons, FLIPR, 25 uM ASO"}
{"sequence": "AAATCTATAATAACCACCAC (sugars l3 d14 l3, PS)", "calcium oscillation score": "80.2 % of control"}
{"sequence": "CAAACTTATATCTTTCAAAC (sugars l4 d12 l4, PS)", "calcium oscillation score": "78.3 % of control"}
{"sequence": "CAAATCATCCATCTATAAAC (sugars l4 d12 l4, PS)", "calcium oscillation score": "88.8 % of control"}
{"sequence": "CAACCAACAATACTTTAAAC (sugars l4 d12 l4, PS)", "calcium oscillation score": "85.6 % of control"}
{"sequence": "CACAACTATTAAATACCAAC (sugars l3 d14 l3, PS)", "calcium oscillation score": "83.8 % of control"}
{"sequence": "CACAATCTAACTATTAAC (sugars l3 d12 l3, PS)", "calcium oscillation score": "76.5 % of control"}
{"sequence": "CCAAATCTTATAATAACTAC (sugars ldlllddddddddddlldll, PS)", "calcium oscillation score": "80.2 % of control"}
{"sequence": "CTAAATCCTTAATATCAAAC (sugars l4 d12 l4, PS)", "calcium oscillation score": "79.3 % of control"}
{"sequence": "CTAATATTATAACCATCAAC (sugars l3 d14 l3, PS)", "calcium oscillation score": "82 % of control"}
{"sequence": "TAACTAACTTAACTCAAC (sugars l3 d12 l3, PS)", "calcium oscillation score": "74.7 % of control"}
{"sequence": "TACCATACAATAACTTTAAC (sugars l3 d14 l3, PS)", "calcium oscillation score": "76.5 % of control"}
{"sequence": "TACTCAAATATAACACCAAC (sugars l3 d14 l3, PS)", "calcium oscillation score": "85.6 % of control"}
{"sequence": "TCCACTAACCAATATAAC (sugars l3 d12 l3, PS)", "calcium oscillation score": "76.5 % of control"}
{"target": "Tau", "assay": "rat primary cortical neurons, FLIPR, 25 uM ASO"}
{"sequence": "TTTTCAAACACACCTTCAT (sugars l3 d12 l4, PS)", "calcium oscillation score": "80.8 % of control"}
{"sequence": "TTTTCAAACACACCTTCATT (sugars l2 d14 l4, PS)", "calcium oscillation score": "98.6 % of control"}
{"sequence": "TTTTCCCAATTATTAACCC (sugars l3 d14 l2, PS)", "calcium oscillation score": "71.4 % of control"}
{"sequence": "TTTTCTCAATGTAACCT (sugars l4 d9 l4, PS)", "calcium oscillation score": "80.5 % of control"}
{"sequence": "TTTTCTCTCTTAACTTTATT (sugars l4 d12 l4, PS)", "calcium oscillation score": "89 % of control"}
{"sequence": "TTTTCTTGTTCTAACCCC (sugars l2 d13 l3, PS)", "calcium oscillation score": "50.1 % of control"}
{"sequence": "TTTTTACCAATTTGCCT (sugars l2 d11 l4, PS)", "calcium oscillation score": "55.5 % of control"}
{"sequence": "TTTTTATTCATAACTTTTCA (sugars l4 d12 l4, PS)", "calcium oscillation score": "56.4 % of control"}
{"sequence": "TTTTTCTCTCTTAACTTT (sugars l4 d10 l4, PS)", "calcium oscillation score": "94.5 % of control"}
{"sequence": "TTTTTCTCTCTTAACTTTA (sugars l4 d11 l4, PS)", "calcium oscillation score": "83.6 % of control"}
{"sequence": "TTTTTCTCTCTTAACTTTAT (sugars l4 d12 l4, PS)", "calcium oscillation score": "93.2 % of control"}
{"sequence": "TTTTTCTTGTTCTAACCC (sugars l4 d12 l2, PS)", "calcium oscillation score": "56.1 % of control"}
{"sequence": "TTTTTTAACTCCCAACTC (sugars l4 d10 l4, PS)", "calcium oscillation score": "95.2 % of control"}
{"sequence": "TTTTTTAACTCCCAACTCT (sugars l4 d13 l2, PS)", "calcium oscillation score": "95.7 % of control"}
{"sequence": "TTTTTTAACTCCCAACTCTT (sugars l4 d14 l2, PS)", "calcium oscillation score": "98.3 % of control"}
{"sequence": "TTTTTTATTCATAACTTTTC (sugars l4 d12 l4, PS)", "calcium oscillation score": "63.8 % of control"}
{"target": "STC1", "assay": "rat primary cortical neurons, FLIPR, 25 uM ASO"}
{"sequence": "AACATTCAAGCCTTTC (sugars l3 d9 l4, PS)", "calcium oscillation score": "109 % of control"}
{"sequence": "ACATTCAAGCCTTTCC (sugars l4 d10 l2, PS)", "calcium oscillation score": "81.6 % of control"}
{"sequence": "ACCTGTAACTACTTCC (sugars l3 d11 l2, PS)", "calcium oscillation score": "100 % of control"}
{"sequence": "AGCTATTTATATTCCAC (sugars l2 d11 l4, PS)", "calcium oscillation score": "122 % of control"}
{"sequence": "ATAGTTATTCCATTCC (sugars l4 d10 l2, PS)", "calcium oscillation score": "105 % of control"}
{"sequence": "ATCAATATTATTCTTCT (sugars l5 d8 l4, PS)", "calcium oscillation score": "122 % of control"}
{"sequence": "ATTATTCTTCTGTTTCC (sugars l2 d11 l4, PS)", "calcium oscillation score": "67.6 % of control"}
{"sequence": "CAACATTCAAGCCTTT (sugars l5 d7 l4, PS)", "calcium oscillation score": "89.1 % of control"}
{"sequence": "CTAATTATATATTTCCAC (sugars l4 d10 l4, PS)", "calcium oscillation score": "119 % of control"}
{"sequence": "CTATTTATATTCCACAG (sugars l4 d11 l2, PS)", "calcium oscillation score": "69.8 % of control"}
{"sequence": "TAGTTATTCCATTCCC (sugars l2 d12 l2, PS)", "calcium oscillation score": "92.3 % of control"}
{"sequence": "TAGTTATTCCATTCCCA (sugars l2 d13 l2, PS)", "calcium oscillation score": "99.3 % of control"}
{"sequence": "TATTATTCTTCTGTTTC (sugars l3 d10 l4, PS)", "calcium oscillation score": "53.4 % of control"}
{"sequence": "TATTTATATTCCACAGT (sugars l3 d10 l4, PS)", "calcium oscillation score": "107 % of control"}
{"sequence": "TCAATATTATTCTTCTG (sugars l2 d11 l4, PS)", "calcium oscillation score": "35.4 % of control"}
{"sequence": "TTACAAGTCATTTCCCT (sugars l4 d11 l2, PS)", "calcium oscillation score": "91.8 % of control"}
{"sequence": "TTACCCAAATACACACA (sugars l4 d9 l4, PS)", "calcium oscillation score": "143 % of control"}
{"sequence": "TTACCCAAATACACACAT (sugars l4 d10 l4, PS)", "calcium oscillation score": "137 % of control"}
{"sequence": "TTACCCAAATACACACATA (sugars l3 d12 l4, PS)", "calcium oscillation score": "119 % of control"}
